Assay results taken from ChEMBL document CHEMBL1144534, “Molecular modeling of some 1H-benzimidazole derivatives with biological activity against Entamoeba histolytica: a comparative molecular field analysis study” (Bioorg Med Chem, 2007).

Test system: Entamoeba histolytica
Assay: Antiamoebic activity against Entamoeba histolytica
Type: functional, organism-based

IC50	SMILES
195 nM	CSc1nc2ccccc2n1C
5.01 nM	Cc1nc2cc(Cl)ccc2n1C
209 nM	FC(F)(F)C(F)(F)c1nc2cc(Cl)c(Cl)cc2[nH]1
1350 nM	O=[N+]([O-])c1cc2nc(C(F)(F)F)[nH]c2cc1[N+](=O)[O-]
214 nM	FC(F)(F)C(F)(F)c1nc2c(Br)c(Br)c(Br)c(Br)c2[nH]1
6.03 nM	Cn1c(S)nc2ccccc21
302 nM	FC(F)(F)c1nc2c(Br)c(Br)c(Br)c(Br)c2[nH]1
3800 nM	Cn1c(S)nc2ccc(Cl)cc21
575 nM	CSc1nc2ccc(Cl)cc2n1C
12.9 nM	Cc1nc2cc(Cl)c(Cl)cc2n1C
245 nM	Cn1c(N)nc2ccc(Cl)cc21
37.2 nM	Cn1c(N)nc2cc(Cl)c(Cl)cc21
129 nM	Cn1c(S)nc2cc(Cl)c(Cl)cc21
61.7 nM	Cc1nc2ccccc2n1C
1320 nM	FC(F)(F)c1nc2cc(Br)ccc2[nH]1
50.1 nM	FC(F)(F)c1nc2c(Br)cc(Br)cc2[nH]1
37.2 nM	CSc1nc2cc(Cl)ccc2n1C
10 nM	Cn1c(S)nc2cc(Cl)ccc21
204 nM	Cc1nc2ccc(Cl)cc2n1C
1050 nM	CSc1nc2cc(Cl)c(Cl)cc2n1C
427 nM	FC(F)(F)c1nc2cc(Br)c(Br)cc2[nH]1
